Experimental data taken from the supplement of paper PMC13380429.

Key:
Conditions in all cases: 72 h
Calu-3 [1] = test: drug sensitivity score (DSS) for viability; higher = more toxic; extreme values may be limits of the assay
Caco-2 [2] = test: as above
HepG2 [3] = test: as above
U2OS [4] = test: as above
Vero E6 [5] = test: as above
Calu-3 [6] = test: cell viability relative to DMSO; higher = less toxic
Caco-2 [7] = test: as above
HepG2 [8] = test: as above
U2OS [9] = test: as above
Vero E6 [10] = test: as above
Caco-2 [11] = test: relative viability EC50 (midpoint between 100% and the lowest measured viability); higher = less toxic
HepG2 [12] = test: as above
U2OS [13] = test: as above
Vero E6 [14] = test: as above
Calu-3 [15] = test: as above

Row | Structure (SMILES) | drug sensitivity score (Calu-3 [1]) | drug sensitivity score (Caco-2 [2]) | drug sensitivity score (HepG2 [3]) | drug sensitivity score (U2OS [4]) | drug sensitivity score (Vero E6 [5]) | cell viability (Calu-3 [6]; 1 nM) [%] | cell viability (Calu-3 [6]; 10 nM) [%] | cell viability (Calu-3 [6]; 100 nM) [%] | cell viability (Calu-3 [6]; 1000 nM) [%] | cell viability (Calu-3 [6]; 10000 nM) [%] | cell viability (Caco-2 [7]; 1 nM) [%] | cell viability (Caco-2 [7]; 10 nM) [%] | cell viability (Caco-2 [7]; 100 nM) [%] | cell viability (Caco-2 [7]; 1000 nM) [%] | cell viability (Caco-2 [7]; 10000 nM) [%] | cell viability (HepG2 [8]; 1 nM) [%] | cell viability (HepG2 [8]; 10 nM) [%] | cell viability (HepG2 [8]; 100 nM) [%] | cell viability (HepG2 [8]; 1000 nM) [%] | cell viability (HepG2 [8]; 10000 nM) [%] | cell viability (U2OS [9]; 1 nM) [%] | cell viability (U2OS [9]; 10 nM) [%] | cell viability (U2OS [9]; 100 nM) [%] | cell viability (U2OS [9]; 1000 nM) [%] | cell viability (U2OS [9]; 10000 nM) [%] | cell viability (Vero E6 [10]; 1 nM) [%] | cell viability (Vero E6 [10]; 10 nM) [%] | cell viability (Vero E6 [10]; 100 nM) [%] | cell viability (Vero E6 [10]; 1000 nM) [%] | cell viability (Vero E6 [10]; 10000 nM) [%] | relative viability EC50 (Caco-2 [11]) [µM] | relative viability EC50 (HepG2 [12]) [µM] | relative viability EC50 (U2OS [13]) [µM] | relative viability EC50 (Vero E6 [14]) [µM] | relative viability EC50 (Calu-3 [15]) [µM]
1 | CN[C@@H]1[C@@H](O[C@H]2O[C@H](CO)[C@@H](N)[C@H](O)[C@H]2O)O[C@H]2C[C@@H](N)[C@@H](O[C@H]3[C@H](O)[C@@H](O)[C@H](N)C[C@@H]3N)O[C@@H]2[C@@H]1O [apramycin] | 2.1 | 0 | 0 | 0 | 0 | 97.8 | 99.6 | 100 | 91.5 | 74.8 | 98 | 89 | 104 | 104 | 92.9 | 106 | 98.1 | 107 | 99.3 | 97.5 | 105 | 100 | 92.8 | 104 | 99.9 | 102 | 95.3 | 93.2 | 99.9 | 102 | > 10 | > 10 | > 10 | > 10 | –
2 | CC(C)(c1ccc(O)cc1)c1ccc(O)cc1 [bisphenol-A] | – | 0.1 | 0 | 0 | 0.1 | – | – | – | – | – | 92.2 | 111 | 102 | 97.3 | 88.8 | 98.7 | 94.4 | 103 | 94.6 | 106 | 101 | 109 | 99.6 | 107 | 102 | 107 | 105 | 99.2 | 98 | 88.6 | > 10 | > 10 | > 10 | > 10 | –
3 | CCCCCCCCc1ccc(-c2ccc(C(=O)O)cc2)cc1 | – | 0 | 0 | 0 | 0 | – | – | – | – | – | 100 | 107 | 81.5 | 98.7 | 97.3 | 101 | 99.8 | 97.2 | 101 | 97.3 | 99 | 106 | 96.8 | 93 | 95 | 101 | 99.7 | 97.7 | 97.7 | 106 | > 10 | > 10 | > 10 | > 10 | –
4 | CC(C)(Oc1ccc(Cl)cc1)C(=O)N1CSCC1C(=O)O (configuration not stated) [timofibrate] | – | 0 | 0 | 0 | 0 | – | – | – | – | – | 87.1 | 99.6 | 95.7 | 98.9 | 103 | 99 | 102 | 108 | 96.8 | 113 | 95.5 | 105 | 98.2 | 103 | 104 | 99.5 | 104 | 96 | 94.8 | 105 | > 10 | > 10 | > 10 | > 10 | –
5 | COc1ccc2cc([C@H](C)C(=O)O)ccc2c1 [naproxen] | 0 | 0 | 0 | 0 | 0 | – | – | – | – | – | 95.1 | 101 | 102 | 94.9 | 95.3 | 106 | 103 | 104 | 100 | 99.4 | 101 | 102 | 98.4 | 96.8 | 102 | 109 | 97.8 | 98.2 | 101 | 100 | > 10 | > 10 | > 10 | > 10 | > 10
6 | CCCCCCCCCCCCCCCCCCCCCC(=O)O [AGP-103] | – | 0 | 0 | 0 | 0 | – | – | – | – | – | 104 | 90.4 | 96.5 | 106 | 99.9 | 97.6 | 94.8 | 98.5 | 95.5 | 92.7 | 99.8 | 93.9 | 98.3 | 101 | 102 | 105 | 106 | 100 | 97.9 | 99.1 | > 10 | > 10 | > 10 | > 10 | –
7 | COc1cc2c(cc1NS(=O)(=O)c1ccc(Br)cc1C)n(C)c(=O)n2C [OF-1] | – | 2.1 | 5.1 | 0.3 | 0.1 | – | – | – | – | – | 94 | 95.3 | 102 | 86.2 | 78.2 | 96.5 | 101 | 97.1 | 87.8 | 42.3 | 99.1 | 94.6 | 103 | 93 | 88.3 | 105 | 102 | 96.4 | 99.7 | 88 | > 10 | 1.69 | > 10 | > 10 | –
8 | O=C(C[C@H]1CC(c2ccc(F)cc2F)=NO1)N1CCOCC1 (racemic) [CPSI-1306-(+/-)] | – | 0 | 0 | 0 | 0 | – | – | – | – | – | 93.7 | 105 | 107 | 90.9 | 104 | 101 | 107 | 96.4 | 95.6 | 104 | 95.7 | 99.3 | 99.1 | 102 | 104 | 95.6 | 97.4 | 93.6 | 95 | 106 | > 10 | > 10 | > 10 | > 10 | –
